pIC50: −log10 of the molar value.
Tested on: 695427-040-R-J1-PDC complex spheroid viability
Experiment: Anticancer human tumor 695427-040-R-J1-PDC patient-derived colon adenocarcinoma cell line growth inhibition [RAS]
Conditions: for pIC50: curve of first compound; for viability, T/C: stronger effect = lower value
Method in brief: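 Tumour cells grown as complex spheroids with HUVEC endothelial cells and mesenchymal stem cells, treated with RAS pathway inhibitor combinations. Each agent spans half-log steps from near clinical Cmax, or 10 microM where Cmax is unknown.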

[1] = second compound 0.000949 µM, first compound 0.0316 µM
[2] = second compound 0.000949 µM, first compound 0.1 µM
[3] = second compound 0.000949 µM, first compound 0.316 µM
[4] = second compound 0.000949 µM, first compound 1 µM
[5] = second compound 0.000949 µM, first compound 3.16 µM
[6] = second compound 0.000949 µM, first compound 10 µM
[7] = second compound 0.003 µM, first compound 0.0316 µM
[8] = second compound 0.003 µM, first compound 0.1 µM
[9] = second compound 0.003 µM, first compound 0.316 µM
[10] = second compound 0.003 µM, first compound 1 µM
[11] = second compound 0.003 µM, first compound 3.16 µM
[12] = second compound 0.003 µM, first compound 10 µM
[13] = second compound 0.00949 µM, first compound 0.0316 µM
[14] = second compound 0.00949 µM, first compound 0.1 µM
[15] = second compound 0.00949 µM, first compound 0.316 µM
[16] = second compound 0.00949 µM, first compound 1 µM
[17] = second compound 0.00949 µM, first compound 3.16 µM
[18] = second compound 0.00949 µM, first compound 10 µM
[19] = second compound 0.03 µM, first compound 0.0316 µM
[20] = second compound 0.03 µM, first compound 0.1 µM
[21] = second compound 0.03 µM, first compound 0.316 µM
[22] = second compound 0.03 µM, first compound 1 µM
[23] = second compound 0.03 µM, first compound 3.16 µM
[24] = second compound 0.03 µM, first compound 10 µM
[25] = second compound 0.0949 µM, first compound 0.0316 µM
[26] = second compound 0.0949 µM, first compound 0.1 µM
[27] = second compound 0.0949 µM, first compound 0.316 µM
[28] = second compound 0.0949 µM, first compound 1 µM
[29] = second compound 0.0949 µM, first compound 3.16 µM
[30] = second compound 0.0949 µM, first compound 10 µM
[31] = second compound 0.3 µM, first compound 0.0316 µM
[32] = second compound 0.3 µM, first compound 0.1 µM
[33] = second compound 0.3 µM, first compound 0.316 µM
[34] = second compound 0.3 µM, first compound 1 µM
[35] = second compound 0.3 µM, first compound 3.16 µM
[36] = second compound 0.3 µM, first compound 10 µM
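Also: viability read after seven days of drug exposure.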
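For viability, T/C in this document: 100% = DMSO vehicle control viability.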

Molecule CCC(CC)c1cc(NC2CCC(N)C2)n2nccc2n1 (stereo unspecified) + CCn1c(-c2cccnc2C(C)OC)c2c3cc(ccc31)N1CCOC(CC(NC(=O)C(C(C)C)N(C)C(=O)C3(F)CCN(C(=O)C#CC(C)(C)N(C)C)CC3)C(=O)N3CCCC(N3)C(=O)OCC(C)(C)C2)C1 has a pIC50 (second compound 0.000949 µM) of 5.73, a pIC50 (second compound 0.003 µM) of 5.74 and a pIC50 (second compound 0.00949 µM) of 5.74. The pIC50 (second compound 0.03 µM) was 5.72, the pIC50 (second compound 0.0949 µM) was 5.78 and the pIC50 (second compound 0.3 µM) was 5.84. The viability, T/C [1] was 82.4%, the viability, T/C [2] was 104% and the viability, T/C [3] was 100%. It also gave a viability, T/C [4] of 94.6%, a viability, T/C [5] of 13.2% and a viability, T/C [6] of 12.6%. For the same molecule, the viability, T/C [7] was 106%, the viability, T/C [8] was 88.4% and the viability, T/C [9] was 100%. The viability, T/C [10] was 81.5%, the viability, T/C [11] was 20.3% and the viability, T/C [12] was 9.28%. For the same molecule, the viability, T/C [13] was 82.2%, the viability, T/C [14] was 82.4% and the viability, T/C [15] was 111%. For the same molecule, the viability, T/C [16] was 87.9%, the viability, T/C [17] was 13.3% and the viability, T/C [18] was 10.4%. The viability, T/C [19] was 86.7%, the viability, T/C [20] was 90.8% and the viability, T/C [21] was 97.6%. The viability, T/C [22] was 90.5%, the viability, T/C [23] was 17.7% and the viability, T/C [24] was 12.2%. It also gave a viability, T/C [25] of 89.2%, a viability, T/C [26] of 83.1% and a viability, T/C [27] of 86.8%. For the same molecule, the viability, T/C [28] was 78.8%, the viability, T/C [29] was 13.3% and the viability, T/C [30] was 11.5%. It also gave a viability, T/C [31] of 85.3%, a viability, T/C [32] of 77% and a viability, T/C [33] of 85.2%. For the same molecule, the viability, T/C [34] was 68.3%, the viability, T/C [35] was 12.6% and the viability, T/C [36] was 11%.

CC(Nc1ccc2c(c1)OCCn1cc(N3C(=O)OCC3C(F)F)nc1-2)C(N)=O (stereo unspecified) + CCn1c(-c2cccnc2C(C)OC)c2c3cc(ccc31)N1CCOC(CC(NC(=O)C(C(C)C)N(C)C(=O)C3(F)CCN(C(=O)C#CC(C)(C)N(C)C)CC3)C(=O)N3CCCC(N3)C(=O)OCC(C)(C)C2)C1 was tested, and the pIC50 (second compound 0.000949 µM) was less than 5.00, the pIC50 (second compound 0.003 µM) was 5.07 and the pIC50 (second compound 0.00949 µM) was less than 5.00. The pIC50 (second compound 0.03 µM) was less than 5.00, the pIC50 (second compound 0.0949 µM) was less than 5.00 and the pIC50 (second compound 0.3 µM) was less than 5.00. It also gave a viability, T/C [1] of 80.8%, a viability, T/C [2] of 68.8% and a viability, T/C [3] of 68.7%. The viability, T/C [4] was 34.9%, the viability, T/C [5] was 80.1% and the viability, T/C [6] was 39.4%. For the same molecule, the viability, T/C [7] was 95.4%, the viability, T/C [8] was 79.6% and the viability, T/C [9] was 62.1%. It also gave a viability, T/C [10] of 50.1%, a viability, T/C [11] of 86% and a viability, T/C [12] of 37.5%. The viability, T/C [13] was 103%, the viability, T/C [14] was 84.1% and the viability, T/C [15] was 72.3%. It also gave a viability, T/C [16] of 62.9%, a viability, T/C [17] of 81.9% and a viability, T/C [18] of 42.3%. It also gave a viability, T/C [19] of 91.8%, a viability, T/C [20] of 70.1% and a viability, T/C [21] of 59.9%. The viability, T/C [22] was 45.3%, the viability, T/C [23] was 89.3% and the viability, T/C [24] was 37.8%. It also gave a viability, T/C [25] of 71.8%, a viability, T/C [26] of 67.5% and a viability, T/C [27] of 52.6%. The viability, T/C [28] was 50.4%, the viability, T/C [29] was 100% and the viability, T/C [30] was 40.9%. The viability, T/C [31] was 69.6%, the viability, T/C [32] was 52% and the viability, T/C [33] was 70.8%. It also gave a viability, T/C [34] of 52.8%, a viability, T/C [35] of 69.1% and a viability, T/C [36] of 42.1%.

Molecule CC(=O)OC12COC1CC(O)C1(C)C(=O)C(O)C3=C(C)C(OC(=O)C(O)C(NC(=O)OC(C)(C)C)c4ccccc4)CC(O)(C(OC(=O)c4ccccc4)C21)C3(C)C (stereo unspecified) + CCn1c(-c2cc(N3CCN(C)CC3)cnc2C(C)OC)c2c3cc(ccc31)-c1csc(n1)CC(NC(=O)C1CC1C)C(=O)N1CCCC(N1)C(=O)OCC(C)(C)C2 has a pIC50 (second compound 0.000949 µM) of less than 5.00, a pIC50 (second compound 0.003 µM) of less than 5.00 and a pIC50 (second compound 0.00949 µM) of 6.53. The pIC50 (second compound 0.03 µM) was 7.44, the pIC50 (second compound 0.0949 µM) was greater than 7.50 and the pIC50 (second compound 0.3 µM) was greater than 7.50. The viability, T/C [1] was 78.2%, the viability, T/C [2] was 73.5% and the viability, T/C [3] was 68.7%. The viability, T/C [4] was 57.2%, the viability, T/C [5] was 73.5% and the viability, T/C [6] was 52.7%. It also gave a viability, T/C [7] of 81.4%, a viability, T/C [8] of 70.2% and a viability, T/C [9] of 59.7%. The viability, T/C [10] was 60.6%, the viability, T/C [11] was 56.5% and the viability, T/C [12] was 65.4%. It also gave a viability, T/C [13] of 75.3%, a viability, T/C [14] of 53.5% and a viability, T/C [15] of 52.1%. The viability, T/C [16] was 44.7%, the viability, T/C [17] was 49.7% and the viability, T/C [18] was 34.3%. It also gave a viability, T/C [19] of 58.1%, a viability, T/C [20] of 38.6% and a viability, T/C [21] of 42.1%. For the same molecule, the viability, T/C [22] was 44.8%, the viability, T/C [23] was 42.9% and the viability, T/C [24] was 36.3%. It also gave a viability, T/C [25] of 36.5%, a viability, T/C [26] of 36.6% and a viability, T/C [27] of 36.4%. For the same molecule, the viability, T/C [28] was 33.3%, the viability, T/C [29] was 32.4% and the viability, T/C [30] was 29.6%. For the same molecule, the viability, T/C [31] was 35.2%, the viability, T/C [32] was 28.4% and the viability, T/C [33] was 33.9%. For the same molecule, the viability, T/C [34] was 26.9%, the viability, T/C [35] was 30.9% and the viability, T/C [36] was 27.1%.

— PubChem BioAssay AID2060888 (Molecular Pharmacology Branch, DTP, NCI, 2025)
